According to patent publication US8355877B2, “System for predicting responsiveness to a pharmaceutical therapy for obesity” (priority 2007, dated 2013):

Key:
[1] = system: DIO-LE rats maintained on a high fat chow; experiment: Cross therapeutic target rat study: reduction of TRL V6 concentration (NMR LipoProfile) after an acute dose; assay type: in vivo
Procedure: (§1) As a typical example, whole blood samples are collected into 2 ml EDTA blood collection tubes, inverted several times to mix well, and placed on ice. The samples are then centrifuged at approximately 3000 rpm for 10-15 minutes at 4° C. Upon completion of centrifugation, the tube is placed on ice and the plasma is drawn off. The plasma is place into a polypropylene tube and kept at 4° C. until analysis. Samples may be analyzed at any time up to about 4 days after collection. Samples are analyzed for TRL V6 response, as for example by NMR plasma lipoprotein analysis, as for example, the NMR LipoProfile®, the NMR LipoProfile®-II or the NMR LipoProfile®-III lipoprotein tests provided by LipoScience, Inc. of Raleigh, N.C.
(§2) NMR spectral data is analyzed as described in Jeyarajah et al., supra. Lipoprotein subclass concentrations are reported in lipid mass concentration units (TRL subclasses in units of mg/dL triglyceride) or, alternatively, in particle concentration units of nmol/L (nanomoles of particles per liter). The source information (NMR signal amplitude of each subclass) is transformed into these mass or particle concentration units by the analysis software, using a set of conversion factors obtained from chemical lipid and NMR analyses of isolated chylomicron, VLDL, LDL, and HDL subclass standards of normal lipid composition.
The ability of investigational weight loss pharmaceutical agents to reduce the TRL V6 concentration in rats is shown with three compounds targeting different mechanisms of action including a known potent and selective 5-HT2C receptor agonist, a known potent and selective CB-1 receptor antagonist/inverse agonist, and a potent SNDRI (sibutramine). Each of these compounds are known to induce weight loss in rats and thus the biomarker of reduction in TRL V6 concentration correlates to the investigational weight loss pharmaceutical agents' ability to induce weight loss. Conversely, an opiate antagonist, (naltrexone) which is known to be ineffective in inducing weight loss in rats or in overweight and obese human subjects (Malcolm R et al., Int. J. Obes. 1985; 9(5):347-53), is shown to not reduce the TRL V6 concentration in rats, again correlating the biomarker of reduction in TRL V6 concentration to the investigational weight loss pharmaceutical agents' ability to induce weight loss.
DIO-LE rats maintained on a high fat chow are administered either a vehicle dose or an acute dose of test compound. At specified time points post dose, animals are sacrificed and blood is collected in blood sample tubes containing EDTA and processed essentially as described above. Samples are analyzed by NMR LipoProfile® lipoprotein sub-particle test with report of all particle subtypes (specifically the TRL V6 concentration or particle number).

[2] = system: hypertriglyceridemic and overweight and obese but otherwise healthy subjects; experiment: Human study with a SNDRI (sibutramine): TRL response to fat load, single-blind crossover vs placebo, NMR LipoProfile III; assay type: in vivo
Procedure: Note that where TRL V6 response can be equated with the response of a combination of subtypes, it is because the magnitude of the change in signal, which is due to the change of TRL V6 signal, is sufficiently large compared to the base line signal, to be a significant difference (i.e. the signal from TRL V6 in the base line signal dominates the combined signal so that a change in TRL V6 is reliably detected).
as §1, §2
A SNDRI (sibutramine) known to be able to induce weight loss in humans is tested to correlate its ability to reduce TRL V6 response plasma concentrations and V-TRL response in humans in an exploratory biomarker study employing a single-blind, crossover design, comparing sibutramine and placebo in hypertriglyceridemic and overweight and obese but otherwise healthy subjects.
Three cohorts containing 6 subjects each, undergo three periods during the study. Subjects are fasted overnight and two fasting blood draws are obtained, followed by breakfast at approximately 07:00 hours. Placebo or sibutramine is administered at approximately 10:00 hours. Blood sampling is begun approximately 1 hr. after the start of breakfast and continues at hourly intervals for 7 hr., and then every 2 hr. for the next 10 hr. A lunch according to Example fat load 2 is served at approximately 12:00 hours (approximately 60 to 65 g of fat). No other food is permitted until 12 hr. post fat load administration. Subjects are released after the last blood sampling for a 4 to 8-day washout period before return for the second testing period of the study. After the washout period, subjects are again fasted overnight. The procedures are then repeated as in the first testing period of the study except that each subject crosses over to receive the alternate treatment, sibutramine or placebo. Blood samples are collected, processed and analyzed essentially as described in Example 1 above.
TRL V6 responses and V-TRL responses are observed during the period from 5 to 11 hr. post fat load. […] In most subjects, the administration of sibutramine reduced the magnitude of the TRL V6 response and V-TRL response compared to their placebo-treated responses. Thus the reduction of the TRL V6 response and V-TRL response induced by the SNDRI correlates with the SNDRI known ability to induce weight loss in humans.

[3] = rats, 5-HT2C agonist 10 mg/kg, CB-1 antagonist 0.3 mg/kg, SNDRI 3 mg/kg, naltrexone 10 mg/kg oral
[4] = 5 hr. post dose, CB-1 antagonist 0.3 mg/kg, SNDRI 3 mg/kg, rats
[5] = AUC 5-11 hr. post fat load vs placebo, humans
[6] = AUC from lipid load vs placebo, Table 2

## O=C1CC[C@@]2(O)[C@H]3Cc4ccc(O)c5c4[C@@]2(CCN3CC2CC2)[C@H]1O5 [Naltrexone, naltrexone]
[1]; 10 mg/kg oral, 18 hr. post dose, rats
  TRL V6 level versus baseline at 18 hr. post dose: unchanged
[1]; 10 mg/kg orally administrated dose, rats
  effect on circulating TRL V6 levels: minimal effect
[1]; [3]
  time post dose at which TRL V6 plasma concentration returns to baseline: 5 h

## CC(C)CC(N(C)C)C1(c2ccc(Cl)cc2)CCC1 (stereo not drawn) [Sibutramine, sibutramine]
[1]; 2 hr. post dose, 3 mg/kg, rats
  reduction of TRL V6 concentration: about 78%
[1]; 2 hr. post dose, 5-HT2C agonist 10 mg/kg, SNDRI 3 mg/kg, naltrexone 10 mg/kg oral, rats
  reduction of circulating concentration of TRL V6: about 78%
[1]; [4]
  reduction of TRL V6 concentration: about 78%
  reduction of circulating concentration of TRL V6: about 78%
[1]; T1 (ie 2 hrs) post dose, dose per compound in column Dose (10, 0.3, 3, 10 mg/kg), DIO-LE rats
  Reduction in TRL V6 Response, T1-(ie 2 hrs): 78%
[1]; T2 (ie 5 hrs) post dose, dose per compound in column Dose, DIO-LE rats
  Reduction in TRL V6 Response, T2-(ie 5 hrs): 78%
[1]; T3 (ie 18 hrs) post dose, dose per compound in column Dose, DIO-LE rats
  Reduction in TRL V6 Response, T3-(ie 18 hrs): 0%
[1]; [3]
  time post dose at which TRL V6 plasma concentration returns to baseline: ≤ 18 h
[2]; [5]
  change in mean V-TRL response: statistically significant decrease
  change in the plasma concentrations of TRL V1, V2, V3, V4, or V5 subtypes: does not show a significant change
[2]; AUC 5-11 hr. post fat load, mixed effects model, statistically significant, humans
  decrease in the TRL V6 response (AUC) vs placebo: about 28%
[2]; [6]
  change in TRL V6+TRL V5: did not produce a significant change
  change in TRL V6+TRL V5+chylomicrons: did not produce a significant change
  change in TRL V6+chylomicrons: showed a significant change
  effect on TRL V6 response: reduced the TRL V6 response
[2]; TRL V5, AUC 5-11 hr. from lipid load, P 0.474
  Sibutramine/Placebo Ratio of AUC, TRL V5: 1.10
[2]; TRL V5, AUC 5-11 hr. time points from lipid load, human plasma, NMR
  Geometric LS Mean of AUC, TRL V5: 222.34
[2]; TRL V6 + Chy, AUC 5-11 hr. from lipid load, P 0.004
  Sibutramine/Placebo Ratio of AUC, TRL V6 + Chy: 0.81
[2]; TRL V6 + Chy, AUC 5-11 hr. time points from lipid load, human plasma, NMR
  Geometric LS Mean of AUC, TRL V6 + Chy: 205.0
[2]; TRL V6 + TRL V5, AUC 5-11 hr. from lipid load, P 0.091
  Sibutramine/Placebo Ratio of AUC, TRL V6 + TRL V5: 0.88
[2]; TRL V6 + TRL V5, AUC 5-11 hr. time points from lipid load, human plasma, NMR
  Geometric LS Mean of AUC, TRL V6 + TRL V5: 364.08
[2]; TRL V6 + V5 + Chy, AUC 5-11 hr. from lipid load, P 0.110
  Sibutramine/Placebo Ratio of AUC, TRL V6 + V5 + Chy: 0.89
[2]; TRL V6 + V5 + Chy, AUC 5-11 hr. time points from lipid load, human plasma, NMR
  Geometric LS Mean of AUC, TRL V6 + V5 + Chy: 458.04
[2]; TRL V6, AUC 5-11 hr. from lipid load, P 0.001
  Sibutramine/Placebo Ratio of AUC, TRL V6: 0.73
[2]; TRL V6, AUC 5-11 hr. time points from lipid load, human plasma, NMR
  Geometric LS Mean of AUC, TRL V6: 119.35
[2]; chylomicrons, AUC 5-11 hr. from lipid load, P 0.721
  Sibutramine/Placebo Ratio of AUC, Chy: 0.98
[2]; chylomicrons, AUC 5-11 hr. time points from lipid load, human plasma, NMR
  Geometric LS Mean of AUC, Chy: 81.11
